One molecule from PMC10548421, “Anticancer Potential of Diruthenium Complexes with Bridging Hydrocarbyl Ligands from Bioactive Alkynols” (Inorganic Chemistry, 2023) can be followed below.

In test [1] the test system is MRC-5 normal human lung fibroblast cell line. As to the kind of experiment: MTT in vitro cytotoxicity, MRC-5 (selectivity). In kind it is cell-based. The note with it: normal cells, MTT, incubation 24 h, mean ± SD. As for the experimental part: (§1) The cytotoxicity assessment was conducted on various human cancer cell lines, including A2780 ovarian carcinoma, A2780R cisplatin-resistant ovarian carcinoma, MCF-7 breast, HOS osteosarcoma, A549 epithelial lung, PANC-1 pancreatic, Caco-2 colorectal, PC-3 prostate adenocarcinoma, and HeLa cervical cell lines. Additionally, the assessment extended to a normal human fetal fibroblast cell line (MRC-5). Cells were obtained from ATCC collection and cultivated according to the producer’s instructions. Stock solutions of the compounds were prepared in DMF immediately before application, and diluted with H2O to achieve the final concentration of 0.1% v/v DMF.[99] The culture media were enriched with 10% fetal calf serum. Subsequently, the cells were exposed to the tested compounds, vehicle (0.1% v/v DMF) and Triton X-100 (1% v/v), during incubation. The conventional MTT assay was carried out following different incubation periods (Tables 5-6). The absorbance was measured at 570 nm by using a spectrophotometer (Infinite M200, Schoeller Instruments, Prague, Czech Republic). The obtained data are presented as the percentage of cell viability with 100% representing negative control treatment (0.1% v/v DMF) and 0% representing the positive control (Triton X-100). The half-maximal inhibitory concentrations (IC50) were determined from dose–response curves using GraphPad Prism 6 software (GraphPad Software, San Diego, USA).

The subject of test [2] is A549 human lung adenocarcinoma cell line. The test is described as follows: MTT in vitro cytotoxicity, A549. It counts as cell-based. As to conditions: incubation 24 h, mean ± SD. As for the experimental part:
as §1

The subject of test [3] is PC-3 human prostate carcinoma cell line. The test is described as follows: MTT in vitro cytotoxicity, PC-3. It counts as cell-based. The note with it: incubation 24 h, mean ± SD. As for the experimental part:
as §1

The test system of test [4] is A2780 cells. As to the kind of experiment: Mitochondrial membrane potential analysis (MITO-ID). In kind it is cell-based, human. The note with it: A2780, complexes 4 μM, cisplatin 15 μM, 24 h. As for the experimental part:
(§2) The A2780 ovarian carcinoma cell line was received from Merck (reference 93112519–1VL) and cultured at 37 °C in an environment with 5% CO2. The cultivation was carried out in complete cell culture medium (RPMI-1640 medium, Merck), which was supplemented with 10% fetal bovine serum (FBS, Merck), 1% L-glutamine (Merck) and 1% penicillin–streptomycin–neomycin (PSN, Merck). For the flow cytometry experiments, three independent duplicates were analyzed using a BD FACSVerse flow cytometer (Becton Dickinson, USA). At least 5 × 10^3 events were recorded for each sample. The same procedure was replicated for the experiments described below. Solutions of the complexes were formulated using the stock solutions (Section 5.1).
To investigate the effects on mitochondrial membrane potential of A2780 cells, an MITO-ID Membrane potential detection kit (Enzo Life Sciences, USA) was used. Cells were seeded in a 24-well (5 × 10^4 cells/well), and then incubated with 4 μM solution of complexes for 24 h. The supernatant was collected, cells were washed with warm PBS, detached using 0.25% trypsin-EDTA (Gibco) and resuspended in a cell culture medium. Then, samples were stained with diluted MITO-ID MP Detection Reagent (according to the protocol) at RT for 15 min, prior to flow cytometry analysis. A positive control was established by treating the samples with 2 μM carbonyl cyanide 3-chlorophenylhydrazone.

Test [5] has as its system A2780R cisplatin-resistant human ovarian carcinoma cell line. As to the kind of experiment: MTT in vitro cytotoxicity, A2780R. The note with it: incubation 24 h, mean ± SD. In kind it is cell-based. As for the experimental part:
as §1

Test [6] deals with MCF-7 breast adenocarcinoma cell line. The test is described as follows: MTT in vitro cytotoxicity, MCF-7. It counts as cell-based, human. As to conditions: incubation 24 h, mean ± SD. As for the experimental part:
as §1

For test [7], the system named is A2780 cells. As to the kind of experiment: Autophagy analysis (CYTO-ID). In kind it is cell-based, human. The note with it: A2780, complexes 4 μM, cisplatin 15 μM, 24 h. Here is the method:
as §2
The potential induction of autophagy by 3a and 3b in A2780 cells was studied with the kit CYTO-ID Autophagy Detection 2.0 (from Enzo Life Sciences, USA), following the protocol provided by the manufacturer. […] The supernatant was collected, cells were washed with warm PBS, detached using 0.25% trypsin-EDTA (Gibco) and resuspended in a cell culture medium. Diluted CYTO-ID Green stain solution (according to the protocol) was used to stain the samples. Following incubation for 30 min in a light-protected environment, the samples were washed with PBS (phosphate-buffered saline). Subsequently, a flow cytometry experiment was conducted. A mixture of chloroquine (10 μM) and rapamycin (0.5 μM) was used as positive control.

Test [8] has as its system HeLa human cervical carcinoma cell line. The test is described as follows: MTT in vitro cytotoxicity, HeLa. As to conditions: incubation 24 h, mean ± SD. It counts as cell-based. As for the experimental part: as §1
In test [9] the test system is A2780 cells. As to the kind of experiment: Apoptosis, Annexin V/propidium iodide flow cytometry. It counts as cell-based, human. The note with it: A2780, cisplatin 15 μM, 24 h, Annexin V/PI. As for the experimental part:
as §2
Apoptosis assay was performed using an Annexin V-FITC/PI commercial kit (V13242, Thermo Fisher Scientific, USA), while caspase 3/7 activation assay was performed with a CellEvent Caspase-3/7 Green Flow Cytometry Assay Kit (C10427, Thermo Fisher Scientific, USA). A2780 cells were seeded in 24-well plates at a density of 5 × 10^4 cells per well; after 24 h, the cells were exposed to 4 μM solution of the selected complex for 24 h. […] The supernatant was collected, cells were washed with PBS (0.1 M, pH 7.4), and trypsin was added (0.25% trypsin-EDTA, GibcoTM). Finally, complete cell culture medium was added to stop the trypsinization, and a final volume of 500 μL was divided into two 250 μL aliquots, following the protocol provided by the manufacturer. Samples were centrifuged, treated with the respective buffers, and then incubated in the dark at room temperature for 10 min (Annexin V-FITC/PI) or at 37 °C for 30 min (CellEventTM Caspase-3/7 Green Detection Reagent).
A general note: In flow cytometry, cells or beads pass a laser one at a time.

For test [10], the system named is PANC-1 human pancreatic carcinoma cell line. The test is described as follows: MTT in vitro cytotoxicity, PANC-1. In kind it is cell-based. As to conditions: incubation 24 h, mean ± SD. Here is the method:
as §1

The subject of test [11] is HOS human osteosarcoma cell line. As to the kind of experiment: MTT in vitro cytotoxicity, HOS. In kind it is cell-based. The note with it: incubation 24 h, mean ± SD. As for the experimental part:
as §1

The term IC50 denotes the concentration that inhibits the measured activity by half. `N.N.[Cl][Pt][Cl]` [cisplatin, reference compound]: the IC50 was above 50 µM in [1]; 39.2 ± 3.1 µM in [2]; above 50 µM in [3]; 40 ± 3.9 µM in test [5]; 28.4 ± 2.7 µM in [6]; 30.7 ± 0.6 µM in [8]. For the same molecule, the IC50 in [10] is above 50 µM; in [11], 26.3 ± 3.3 µM. The “cell count with damaged mitochondrial membranes (in words)” value in [4] is reported as “notable augmentation”. Further, the “autophagy level (in words)” value in [7] is given as “significantly enhanced”. Besides, the “cells with apoptotic changes” value in test [9] was “ca. 40 % of the cells”.
